From patent US10806711B2 (priority 2011, dated 2020)
Entries after “also recorded” stand apart in the source; their conditions may differ.

Experiments:
mice subjected to I/R = assay: Probenecid bolus followed by Ischemia/Reperfusion (infarct size, echocardiography); type: in vivo, mouse; details: IV pretreatment
Description: Ischemia/Reperfusion methods—Mice were anesthetized with sodium pentobarbital and the heart exposed through a left thoracotomy at the level of the fourth intercostal space. The mice were intubated and placed on a mini-ventilator (Harvard apparatus, Holliston, Mass.). A loop occluder was placed around the left anterior descending artery (LAD), and tightened, occluding it for either 30 minutes or 45 minutes. After surgery, the thorocotomy was sutured in layers, and the animal was allowed to recover. […] At twenty-four hours post-I/R, echocardiography was performed and the hearts subsequently removed for determination of infarct size and normalized to the risk region.

HL-1 cells = type: cell-based
Description: Cell Viability Assays—Cell viability was assessed using the ApoTox-Glo Triplex Assay (Promega, Madison, Wis.) per manufacturer's instructions. Briefly, HL-1 cells were seeded in 96 well plates at a density of 1×10^4 cells/well and allowed to grow overnight in Claycomb media supplemented with 10% FBS, 100 U/ml penicillin/streptomycin, and 2 mM L-glutamine. […] GF-AFC viability was then added to ApoTox-Glo Assay Buffer at a ratio of 10 μl GF-AFC to 2.0 ml Assay Buffer and 20 μl of this mixture was added to each well and cells were incubated at 37° C. for 30 minutes. Fluorescence was measured at 400 nm (ex)/505 nm (em) and the data was normalized to untreated control cells.

[1] = system: isolated ventricular myocytes; assay: Myocyte Ca2+ transient and cytosolic Ca2+ measurement; type: cell-based, mouse
Description: Isolation of ventricular myocytes—Hearts from WT mice (12-week old) were perfused on the Langendorff system with a modified Krebs-Henseleit buffer (KHB) composed of (mM) NaCl 118, KCl 5.4, HEPES 10, NaH2PO4 0.33, MgCl2 2, glucose 10, taurine 30, butanedione monoxime 10 (pH=7.4). Then an enzyme solution (KHB containing 0.7 mg/ml type II collagenase, 0.1% BSA and 25 μM CaCl2) was used to digest the hearts for 10 min. Finally, ventricles of the hearts were excised, minced and filtered to obtain isolated cells. After sufficient sedimentation, the supernatant was removed and the cells were resuspended.
Myocyte Ca^2+ transient and cytosolic Ca^2+ measurement—Myocytes were loaded with Fluo-4 acetoxymethyl ester (7 μM) for 20 min at room temperature, followed by a 10 min wash with Tyrode's solution, and then placed onto a plexiglass chamber for recording. For Ca^2+ transient measurements, myocytes were excited under 0.5 Hz and 3 Hz field stimulation, and the fluorescence signals were obtained using a Nikon TE 2000 microscope and collected through an InCyt Standard photometry system. For cytosolic Ca^2+ analysis in quiescent myocytes, a Zeiss LSM 510 confocal microscope was used to record fluorescent images from resting myocytes. Line-scan mode was applied at 3.07 ms intervals with 512 pixels spaced at 0.056 μm. Drugs were dissolved in Tyrode's solution and perfused into the chamber. Images of myocytes were recorded every 30 s after drug application. Data analysis was performed using Clampfit 9.2 and Image J 1.44 software.
Water soluble probenecid was used for all of the myocyte experiments.

[2] = system: isolated ventricular myocytes; assay: Myocyte contractility measurement; type: cell-based, mouse
Description: Isolation of ventricular myocytes—Hearts from WT mice (12-week old) were perfused on the Langendorff system with a modified Krebs-Henseleit buffer (KHB) composed of (mM) NaCl 118, KCl 5.4, HEPES 10, NaH2PO4 0.33, MgCl2 2, glucose 10, taurine 30, butanedione monoxime 10 (pH=7.4). Then an enzyme solution (KHB containing 0.7 mg/ml type II collagenase, 0.1% BSA and 25 μM CaCl2) was used to digest the hearts for 10 min. Finally, ventricles of the hearts were excised, minced and filtered to obtain isolated cells. After sufficient sedimentation, the supernatant was removed and the cells were resuspended. Myocyte contractility measurement—Myocytes were put on a plexiglass chamber containing a Tyrode's solution composed of (mM) NaCl 140, KCl, 5.4, MgCl2 1, CaCl2 1.8, HEPES 5, glucose 10 (pH=7.4). Myocytes were excited under 0.5 Hz field stimulation. After reaching the steady state, myocyte shortening and the rates of shortening (+dL/dt) and relengthening (−dL/dt) were imaged with a CCD camera and monitored by a video-edge detector. Drugs were dissolved in Tyrode's solution and perfused into the chamber. Data were continuously collected through the PCLAMP 9 software. Water soluble probenecid was used for all of the myocyte experiments.

[3] = system: isolated ventricular myocytes; assay: Whole-cell patch clamp Ca2+ current recording; type: cell-based, mouse; details: myocytes held at −70 mV, 0.1 μM
Description: Electrophysiological recordings—Isolated myocytes were perfused with a Na^+- and K^+-free solution containing (mM): tetraethylammonium chloride (TEA-Cl) 137, CsCl 5.4, CaCl2 2, MgCl2 1, HEPES 5, glucose 10 and 4-aminopyridine 3 (pH=7.4). Whole-cell patch clamp recordings were performed with an Axopatch-1B amplifier. For Ca^2+ current recordings, glass pipettes were filled with solution containing (mM): aspartic acid 115, CsOH 115, CsCl 20, EGTA 11, HEPES 10, MgCl2 2.5, Na-GTP 0.1, Mg-ATP 2 (pH adjusted to 7.2 with CsOH). Probenecid was dissolved in a Na^+- and K^+-free solution which was used to perfuse the myocytes. Data were collected using pCLAMP9 software through an Axon Digidata 1322A data acquisition system. All experiments were performed at room temperature (24° C.).

Structure (SMILES): CCCN(CCC)S(=O)(=O)c1ccc(C(=O)O)cc1 [probenecid]
- systolic function (EF and global circumferential strain), pretreated vs saline (mice subjected to I/R; 30 and 45 minute ischemia): not significantly different; also recorded: no difference
- infarct size, pretreated vs saline control (mice subjected to I/R; 30 and 45 minute ischemia, 24 hours of reperfusion): not significantly different; also recorded: no difference
- radial displacement of the anterior wall (mice subjected to I/R; 30 minutes ischemia, saline 0.43±0.02): 0.46±0.06 mm
- radial displacement of the anterior wall (mice subjected to I/R; 45 minutes ischemia, saline 0.36±0.03): 0.35±0.06 mm
- radial displacement, pretreated vs control (mice subjected to I/R; either time point): no difference between the treatment groups
- cytotoxicity / cell death (HL-1 cells; increasing doses, 4, 8 or 24 hours following treatment): does not result in any detectable cytotoxicity; also recorded: no significant cell death
- cell death in HL-1 cells (Example 3 summary) (HL-1 cells; probenecid at supraphysiological, isoproterenol at clinically relevant concentrations): no cell death
- decay rate (Tau) of Ca2+ transient ([1]; 0.1 μM): not affected
- time to peak of cytosolic Ca2+ after treatment ([1]; 0.1 μM): approximately 5 min
- Ca2+ spark frequency ([1]; 0.1 μM for 5 minutes, from 1.45±0.09): 2.99±0.24
- increase of cytosolic Ca2+ compared to control at steady state ([1]; 0.1 μM, quiescent myocytes): 2.5±0.2 fold
- Ca2+ transient amplitude (ΔF/F0) ([1]; 0.1 μM, from 3.35±0.20, P<0.001): 4.25±0.25
- increase of myocyte fractional shortening (FS) ([2]; 0.1 μM, 0.5 Hz, room temp, n=6): 30.8±1.4%
- myocyte fractional shortening (FS) ([2]; 0.1 μM, 0.5 Hz, room temp, from 6.9% control): 9.0%
- myocyte fractional shortening (FS) ([2]; 3 Hz and 32° C., n=4, from 10.1% control): 13.9%
- EC50 ([2]; Mus musculus, Ventricular myocyte, isolated ventricular myocytes, averages from 4 mice, read-out: EC50 of dose-response curve on myocyte contractility): 1.6 nM
- maximum +dL/dt (rate of shortening) ([2]; room temperature, n=10, from 80.6±12.3): 112.5±16.6 μm/sec
- −dL/dt (rate of relengthening) ([2]; room temperature, from 57.7±7.4): 77.6±8.7 μm/sec
- inward Ca2+ current [3]: No measurable inward Ca^2+ current was detected
